Measured values from patent publication US20240325400A1, “Composition Comprising Skin-Specific T Cell Inhibitor as Active Ingredient for Prevention or Treatment of Atopic Dermatitis” (INDUSTRY-ACADEMIC COOPERATION FOUNDATION, YONSEI UNIVERSITY, priority 2021, published 2024).

Legend:
[1] = tested on: cells isolated from normal skin tissue; test: Toxicity assay using CCK-8 reagent (cell viability); type: cell-based; settings: for cell viability: cells from normal skin tissue, overnight, CCK-8
Protocol: Thereafter, 10 μL of Cell Counting Kit-8 reagent (Dojindo Lot. PR863) was added to each well of the 96-well plate, and after 2 hours, the safety and toxicity of the drug to the normal skin tissue were evaluated by measuring the absorbance at […].

[2] = tested on: T cells in the spleen; test: FACS of T cell fractions in spleen of atopic dermatitis mouse model; type: in vivo
Protocol: (§1) Then, in order to check changes in skin-specific T cells in each animal, single suspensions were prepared using the spleen, skin, and lymph nodes, and T-cells were stained using anti-CD3, anti-CD4, anti-CD8, and anti-CD45 antibodies. Flow cytometry was performed on skin-specific T cells using anti-CD69 and anti-CD103 antibodies, thereby observing the changes in number and distribution of skin-specific T cells by the application of the drug.

[3] = tested on: serum total IgE; test: Serum total IgE by ELISA in atopic dermatitis mouse model; type: in vivo
Protocol: as §1
(§2) Blood was collected from the mouse heart and then centrifuged at 2,500 rpm for 15 minutes, and the obtained serum was used in the experiment. Then, total IgE was measured using the ELISA MAX™ Delux Set (BioLegend, San Diego, CA, USA) kit. Dermatophagoides farinae (DF)-specific IgE was measured by ELISA using a slight modification of the previously reported method. Briefly, 100 μL of 20 μg/mL DfE in 50 mmol/L carbonate buffer (pH 9.6, Sigma, St. Louis, MO, USA) per well was plated in a 96-well microtiter plate (Corning Inc., Corning)., NY, USA) and incubated overnight at 4° C. Each well was blocked with 3% skim milk in PBS (PBST) containing 0.05% Tween 20 for 1 hour at 37° C. After washing three times with PBST, each well was incubated with a serum sample (diluted to 1:20 [V/V] in 1% BSA) overnight at 4° C. […] The absorbance was measured at 450 nm with a microplate reader (TECAN, Salzburg, Austria).

[4] = tested on: Dermatophagoides farinae (DF)-specific IgE; test: Serum total DF-specific IgE by ELISA in atopic dermatitis mouse model; type: in vivo
Protocol: as §1
Blood was collected from the mouse heart, and then serum total DF-specific IgE (ng/mL) (A450) was measured in a 96-well plate (Corning Inc., Corning, NY, USA) using the ELISA MAX™ Delux Set (BioLegend, San Diego, CA, USA) kit.
as §2, with “C.” for “C. Each well was blocked with 3% skim milk in PBS (PBST) containing 0.05% Tween 20 for 1 hour at 37° C. After washing three times with PBST, each well was incubated with a serum sample (diluted to 1:20 [V/V] in 1% BSA) overnight at 4° C.”

[5] = tested on: T cells in skin-draining lymph nodes; test: FACS of T cell fractions in skin-draining lymph nodes of atopic dermatitis mouse model; type: in vivo
Protocol: as §1

[6] = tested on: skin-specific T cells; test: FACS of T cell fractions in skin of atopic dermatitis mouse model; type: in vivo
Protocol: as §1

[7] = tested on: NC/Nga mice with induced atopic dermatitis; test: H&E staining of skin of NC/Nga mice (eosinophil count, epidermal thickness); type: in vivo, mouse
Protocol: as §1
In atopic dermatitis, the eosinophil count is observed to be characteristically high, making it a representative biological indicator that can explain the immunological mechanism of atopic dermatitis. Based on this fact, hematoxylin and eosin (H&E) staining in NC/Nga mice was performed. […] In addition, when atopic dermatitis occurs, the skin thickens due to an excessive inflammatory response.

[8] = tested on: skin-specific T cells; test: FACS of skin-specific T cells in human skin with atopic dermatitis lesions; type: cell-based; settings: skin immune cells and skin lesions of atopic dermatitis patients, 50 μM and 100 μM, FIG. 13
Protocol: To verify the effect of the candidate drug on skin-specific T cells in human skin tissue, a single suspension was prepared using the skin from an atopic dermatitis patient. T cells were stained using anti-CD3, anti-CD4, anti-CD8 and anti-CD45 antibodies, and flow cytometry was performed on skin-specific T cells using anti-CD69 and anti-CD103 antibodies, which are skin TRM markers, thereby observing the changes in number and distribution of skin-specific T cells by the application of the drug.

[9] = 100 μM, compared to 0.1% dexamethasone

idelalisib
cell viability ([1]; 50 μM): ≥ 90% | cell viability ([1]; 100 μM): ≥ 90% | toxicity in normal skin tissue ([1]; CCK-8, FIG. 4): no significant toxicity | CD69+ T cells and CD103+ T cells in the spleen ([2]; FIG. 11): decreased statistically significantly | proportion of CD3+ and CD4+ T cells in the spleen ([2]; FIG. 11): decreased in a dose-dependent manner | CD69+ T cells and CD103+ T cells compared to positive control ([2]; spleen, compared to 0.1% dexamethasone): significantly decreased in the idelalisib-treated group compared to the 0.1% dexamethasone group | serum total IgE level ([3]; 50 μM and 100 μM, ELISA, FIG. 7): decreased the total IgE level in a dose-dependent manner | decrease in serum total IgE level compared to positive control [3, 9]: significantly greater | total DF-specific IgE level ([4]; 50 μM and 100 μM, ELISA, FIG. 8): reduced the level of total DF-specific IgE in a dose-dependent manner | total DF-specific IgE level compared to positive control [4, 9]: significantly decreased even compared to that in the 0.1% dexamethasone group | proportion of CD3+ T cells in skin-draining lymph nodes ([5]; 100 μM, FIG. 10A): lowest proportion of CD3+ T cells | fraction of CD3+ CD4+ CD103+ T cells in skin-draining lymph nodes ([5]; 100 μM, FIG. 10B): statistically significantly lowest | fraction of T cells expressing CD69 among CD3+ CD4+ T cells in skin-draining lymph nodes ([5]; FIG. 10B): tended to decrease | proportions of CD3+ and CD4+ skin-specific T cells in the skin ([6]; 50 μM and 100 μM, FIG. 12): significantly decreased in both the 50 μM and 100 μM idelalisib groups in a dose-dependent manner | CD69+ T cells and CD103+ T cells in the skin tissues ([6]; FIG. 12): statistically significantly decreased | proportions of skin-specific T cells compared to positive control ([6]; skin, compared to 0.1% dexamethasone): significantly decreased even compared to that in the 0.1% dexamethasone-treated group | epidermal thickness ([7]; FIG. 9B): decreased as the concentration of idelalisib increased | eosinophil count ([7]; FIG. 9C): decreased depending on the idelalisib concentration | proportion of skin-specific T cells [8]: significantly decreased in both the 50 μM and 100 μM idelalisib groups in a dose-dependent manner
